“Also recorded” adds a separate entry of the source.

The source of these data is patent US20250195500A1, “INJECTABLE PREPARATION COMPRISING ISOXAZOLINE DERIVATIVE, AND PREPARATION METHOD THEREFOR” (LG CHEM, LTD., priority 2022, published 2025).

For one series, the system named is caspase. Kind of series: Caspase inhibitory activity. It is filed as biochemical. The settings on record: form present in aqueous solution.
A short description of series [1]: Solubility in solvents of various compositions. Format: physicochemical. An excerpt:
Further, it was confirmed that the compound of Formula 1 has the property of reducing the pH of a solution while being dissolved in a solvent.

The nature of series [2]: Conversion from compound of Formula 2 to compound of Formula 3 according to pH of solvent. Format: physicochemical.

As to `CC(C)[C@@]1(C(=O)N[C@@H](CC(=O)O)C(=O)CF)CC(c2nccc3ccccc23)=NO1` [compound of Formula 2], the caspase inhibitory activity result with caspase is reported as “active form”.

Take `CC(C)[C@@]1(C(=O)NC2CC(=O)OC2(O)CF)CC(c2nccc3ccccc23)=NO1` (stereo in doubt) [compound of Formula 1, (R)—N-((2S,3S)-2-(fluoromethyl)-2-hydroxy-5-oxotetrahydrofuran-3-yl)-5-isopropyl-3-(isoquinolin-1-yl)-4,5-dihydroisoxazol-5-carboxamide]: the solubility in solvent result in series [1] (basic solvent pH 9.0 or higher, strong acidic solvent pH 1 or lower or specific solvent that can be freeze-dried) is given as “dissolves well”. In addition, the solubility in water result in series [1] (water) is listed as “poorly soluble in water; also recorded: hardly soluble in water”.

For the compound `CC(C)[C@@]1(C(=O)N[C@H](CC(=O)O)C(=O)CF)CC(c2nccc3ccccc23)=NO1` [compound of Formula 3], the caspase inhibitory activity result in the series with caspase is “does not show the caspase inhibitory activity”. Further, the “production of compound of Formula 3 from compound of Formula 2” value in series [2] (acidic solvent) is reported as “hardly produced”; in series [2] (neutral or more basic solvent), “rapidly produced”.
